Drawing on patent publication US12247029B2, “Heterocyclic compounds as class II phosphoinositide 3-kinase inhibitors” (Forschungsverbund Berlin e.V., priority 2018, dated 2025), this text covers inhibition and IC50 for 26 molecules.

The target of the assay is PI3KC2α Δ1-298 (Homo sapiens (Human), UniProt O00443). The experiment in a line: ADP-Glo kinase assay with purified PI3KC2α Δ1-298. It is filed as biochemical. To be noted: for pIC50: read-out: IC50 (PI3KC2α; ADP-Glo™ assay). How it is done: Previous studies have shown that PI3KC2α can utilize phosphatidylinositol (PI) or phosphatidylinositol 4-phosphate [PI(4)P] to produce PI(3)P or PI(3,4)P2 respectively but with a preference for PI(3,4)P2 production. To verify that purified PI3KC2α Δ1-298 is active, a radioactive kinase assay was performed with PI as a substrate and different amounts of purified PI3KC2α Δ1-298. The lipid product [PI(3)P] was separated on TLC plates, and the PI(3)P signal was correlated with the amount of PI3KC2α used (FIG. 4A). […] After having confirmed the activity of purified PI3KC2α Δ1-298, an assay suitable for high content screens in multiwell format (ADP-Glo™ assay) was established. The ADP-Glo™ assay has been used for universal detection of ATP hydrolysis. This assay measures ATP hydrolysis occurring during a kinase reaction. For detection, generated ADP is re-converted into ATP with the […] and converted into light by the Ultra-Glo™ Luciferase reagent. The luminescent signal reports kinase activity (FIG. 4B).
PI3KC2α Δ1-298, sequence (O00443 299-1686): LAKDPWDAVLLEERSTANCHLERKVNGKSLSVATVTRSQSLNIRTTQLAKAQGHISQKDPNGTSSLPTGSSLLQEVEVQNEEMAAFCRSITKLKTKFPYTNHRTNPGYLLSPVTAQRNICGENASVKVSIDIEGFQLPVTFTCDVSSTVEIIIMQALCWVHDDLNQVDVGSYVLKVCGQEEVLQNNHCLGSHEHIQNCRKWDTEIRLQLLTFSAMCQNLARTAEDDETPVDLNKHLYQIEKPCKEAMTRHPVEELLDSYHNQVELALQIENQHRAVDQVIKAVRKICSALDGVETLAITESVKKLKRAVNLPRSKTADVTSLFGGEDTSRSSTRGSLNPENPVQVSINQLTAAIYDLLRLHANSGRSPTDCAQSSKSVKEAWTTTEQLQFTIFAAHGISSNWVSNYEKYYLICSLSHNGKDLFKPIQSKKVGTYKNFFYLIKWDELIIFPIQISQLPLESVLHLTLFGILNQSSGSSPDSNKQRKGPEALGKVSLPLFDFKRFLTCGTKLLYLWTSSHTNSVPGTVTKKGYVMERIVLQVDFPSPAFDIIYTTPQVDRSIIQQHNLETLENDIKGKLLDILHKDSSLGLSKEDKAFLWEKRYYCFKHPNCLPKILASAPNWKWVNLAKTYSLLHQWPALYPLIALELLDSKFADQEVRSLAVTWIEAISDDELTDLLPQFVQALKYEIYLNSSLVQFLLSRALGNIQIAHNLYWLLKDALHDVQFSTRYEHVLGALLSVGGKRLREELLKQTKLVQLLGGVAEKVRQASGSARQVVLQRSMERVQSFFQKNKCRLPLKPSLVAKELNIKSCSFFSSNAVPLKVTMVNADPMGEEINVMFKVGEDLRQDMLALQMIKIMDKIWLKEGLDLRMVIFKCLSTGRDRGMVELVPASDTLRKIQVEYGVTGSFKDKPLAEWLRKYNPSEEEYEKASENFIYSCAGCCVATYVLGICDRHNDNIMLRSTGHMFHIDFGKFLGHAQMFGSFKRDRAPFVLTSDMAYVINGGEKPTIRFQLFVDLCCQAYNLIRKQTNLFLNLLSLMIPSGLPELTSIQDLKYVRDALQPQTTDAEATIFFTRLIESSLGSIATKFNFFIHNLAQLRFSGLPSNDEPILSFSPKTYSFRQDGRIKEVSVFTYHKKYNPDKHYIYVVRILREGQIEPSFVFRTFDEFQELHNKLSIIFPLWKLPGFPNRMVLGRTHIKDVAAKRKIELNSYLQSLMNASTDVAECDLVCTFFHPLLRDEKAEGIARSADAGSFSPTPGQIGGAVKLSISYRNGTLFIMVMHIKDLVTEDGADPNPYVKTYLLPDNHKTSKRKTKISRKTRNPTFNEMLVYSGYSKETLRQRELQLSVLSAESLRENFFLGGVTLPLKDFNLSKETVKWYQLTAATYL
The ADP-Glo™ assay was first used to determine the linear correlation range of signal with different amounts of kinase, and then to assess the Kms for ATP and for PI. […] Further optimization of this assay allowed us to carry out medium-to-high throughput screening using low amounts of purified enzyme (at fixed concentrations of: ATP=40 μM, PI=200 μM, PI3KC2α A1−298=10 ng/μl).
Primary screens were performed using the ADP-Glo™ assay in a 384-well format. 37, 224 small molecules were screened for their ability to inhibit kinase activity of PI3KC2α Δ1-298. The concentration of each compound used in the primary screens was 10 μM. Kinase incubations with ATP but without PI were used as negative control samples. This primary screen turned out to be robust with an average z′ factor of 0.57, and therefore judged as successful.
ADP-Glo kinase assay was performed as described by the manufacturer's protocol. Briefly, the kinase assay was performed with a […] of liver PI/ATP/purified PI3KC2α for 20 min in kinase reaction buffer described above. To deplete the remaining ATP from the reaction, 5 μl of […] was added to the kinase reaction mixture and incubated for 40 min. For detection, the generated ADP is re-converted into ATP and converted into light by the Ultra-Glo™ luciferase in kinase detection reagent. The luminescent signal positively correlates with kinase activity. All reactions are performed in Corning® 384 well-white plates.
(In general: ADP-Glo turns the ADP formed in a reaction into a luminescent signal.)

pIC50: −log10 of the molar value.

The inhibition is the drop in the measured response relative to a control, in per cent. As a reminder, the pIC50 is the negative decadic logarithm of the IC50, by convention in mol/L.

As to `O=C(CSc1nc2nccnc2c(=O)n1CCc1ccccc1)c1ccccc1F` [Example Compound 64, 2-((2-(2-Fluorophenyl)-2-oxoethyl)thio)-3-phenethylpteridin-4(3H)-one], the inhibition at 10 µM came to 35%. For `O=c1c2nccnc2nc(SCc2nc3ccccc3[nH]2)n1CCc1ccccc1` [Example Compound 65, 2-(((1H-Benzo[d]imidazol-2-yl)methyl)thio)-3-phenethylpteridin-4(3H)-one], the negative logarithm of the IC50 (pIC50) is 6.77. The same measure, in the same setting: the figure for `O=c1[nH]c(CSc2nc3nccnc3c(=O)n2CCc2ccccc2)nc2ccccc12` [Example Compound 67, 2-(((4-Oxo-3,4-dihydroquinazolin-2-yl)methyl)thio)-3-phenethylpteridin-4(3H)-one] is 5.72; for `Cn1c(=O)c2nc(CSc3nc4nccnc4c(=O)n3CCc3ccccc3)[nH]c2n(C)c1=O` [Example Compound 68, 1,3-Dimethyl-8-(((4-oxo-3-phenethyl-3,4-dihydropteridin-2-yl)thio)methyl)-3,9-dihydro-1H-purine-2,6-dione] it is 5.85. For the molecule `O=c1c2nccnc2nc(SCc2nc3cc(Cl)ccc3[nH]2)n1CCc1ccccc1` [Example Compound 69, 2-(((5-Chloro-1H-benzo[d]imidazol-2-yl)methyl)thio)-3-phenethylpteridin-4(3H)-one], the pIC50 was 4.57. The same measure, in the same setting: the figure for `Cc1ccnc2[nH]c(CSc3nc4nccnc4c(=O)n3CCc3ccccc3)nc12` [Example Compound 70, 2-(((7-Methyl-3H-imidazo[4,5-b]pyridin-2-yl)methyl)thio)-3-phenethylpteridin-4(3H)-one] is 4.38; for `Cn1ncc2c(=O)[nH]c(CSc3nc4nccnc4c(=O)n3CCc3ccccc3)nc21` [Example Compound 71, 2-(((1-Methyl-4-oxo-4,5-dihydro-1H-pyrazolo[3,4-d]pyrimidin-6-yl)methyl)thio)-3-phenethylpteridin-4(3H)-one] it is 5.82. Same read-out and setting: the figure for `O=c1c2nccnc2nc(SCc2nc3cc(Br)ccc3[nH]2)n1CCc1ccccc1` [Example Compound 72, 2-(((5-Bromo-1H-benzo[d]imidazol-2-yl)methyl)thio)-3-phenethylpteridin-4(3H)-one] is 4.29. On the same count and under the same terms, the figure for `O=c1c2nccnc2nc(SCc2nc3cccnc3[nH]2)n1CCc1ccccc1` [Example Compound 73, 2-(((3H-Imidazo[4,5-b]pyridin-2-yl)methyl)thio)-3-phenethylpteridin-4(3H)-one] is 6.21; for `O=c1c2nccnc2nc(SCc2nc3cc(Br)cnc3[nH]2)n1CCc1ccccc1` [Example Compound 74, 2-(((6-Bromo-3H-imidazo[4,5-b]pyridin-2-yl)methyl)thio)-3-phenethylpteridin-4(3H)-one] it is 6.04; for `COC(=O)c1ccc2[nH]c(CSc3nc4nccnc4c(=O)n3CCc3ccccc3)nc2c1` [Example Compound 75, Methyl 2-(((4-oxo-3-phenethyl-3,4-dihydropteridin-2-yl)thio)methyl)-1H-benzo[d]imidazole-5-carboxylate] it is 5.59. As for `O=c1c2nccnc2nc(SCc2ncc[nH]2)n1CCc1ccccc1` [Example Compound 76, 2-(((1H-Imidazol-2-yl)methyl)thio)-3-phenethylpteridin-4(3H)-one], the pIC50 was 4.66. Consider `Cc1nc(CSc2nc3nccnc3c(=O)n2CCc2ccccc2)[nH]c1C` [Example Compound 77, 2-(((4,5-Dimethyl-1H-imidazol-2-yl)methyl)thio)-3-phenethylpteridin-4(3H)-one], for which the pIC50 is 4.64. The same measure, in the same setting: the figure for `CS(=O)(=O)c1ccc(-n2c(SCC(=O)Nc3nccs3)nc3nccnc3c2=O)cc1` [Example Compound 78, 2-((3-(4-(Methylsulfonyl)phenyl)-4-oxo-3,4-dihydropteridin-2-yl)thio)-N-(thiazol-2-yl)acetamide] is 5.02; for `CS(=O)(=O)c1ccc(-n2c(SCc3nc4ccccc4[nH]3)nc3nccnc3c2=O)cc1` [Example Compound 79, 2-(((1H-Benzo[d]imidazol-2-yl)methyl)thio)-3-(4-(methylsulfonyl)phenyl)pteridin-4(3H)-one] it is 6.04. For the molecule `Cc1nnc(NS(=O)(=O)c2ccc(-n3c(SCC(=O)Nc4nccs4)nc4nccnc4c3=O)cc2)s1` [Example Compound 80, 2-((3-(4-(N-(5-Methyl-1,3,4-thiadiazol-2-yl)sulfamoyl)phenyl)-4-oxo-3,4-dihydropteridin-2-yl)thio)-N-(thiazol-2-yl)acetamide], the negative logarithm of the IC50 (pIC50) was 6.55.

As to `CNC(=O)c1ccc(-n2c(SCC(=O)Nc3nccs3)nc3nccnc3c2=O)cc1` [Example Compound 81, 4 N-Methyl-4-(4-oxo-2-((2-oxo-2-(thiazol-2-ylamino)ethyl)thio)pteridin-3(4H)-yl)benzamide], the negative-log IC50 (pIC50) was 6.21. The same measure, in the same setting: the figure for `CNC(=O)c1ccc(-n2c(SCc3nc4ccccc4[nH]3)nc3nccnc3c2=O)cc1` [Example Compound 82, 4-(2-(((1H-Benzo[d]imidazol-2-yl)methyl)thio)-4-oxopteridin-3(4H)-yl)-N-methylbenzamide] is 6.21; for `N#Cc1ccc(-n2c(SCC(=O)Nc3nccs3)nc3nccnc3c2=O)cc1` [Example Compound 85, 2-((3-(4-Cyanophenyl)-4-oxo-3,4-dihydropteridin-2-yl)-thio)-N-(thiazol-2-yl)acetamide] it is 5.92.

`N#Cc1ccc(-n2c(SCc3nc4ccccc4[nH]3)nc3nccnc3c2=O)cc1` [Example Compound 86, 4-(2-(((1H-Benzo[d]imidazol-2-yl)methyl)thio)-4-oxopteridin-3(4H)-yl)benzonitrile]: the pIC50 was 5.96.

Take `O=C(CSc1nc2nccnc2c(=O)n1C1Cc2ccccc2C1)Nc1nccs1` [Example Compound 87, 2-((3-(2,3-Dihydro-1H-inden-2-yl)-4-oxo-3,4-dihydropteridin-2-yl)thio)-N-(thiazol-2-yl)acetamide]: the negative logarithm of the IC50 (pIC50) is 6.77. On the same count and under the same terms, the figure for `O=c1c2nccnc2nc(SCc2nc3ccccc3[nH]2)n1C1Cc2ccccc2C1` [Example Compound 88, 2-(((1H-Benzo[d]imidazol-2-yl)methyl)thio)-3-(2,3-dihydro-1H-inden-2-yl)pteridin-4(3H)-one] is 6.89. Still for that read-out and setting: the figure for `C[C@@H](c1ccccc1)n1c(SCC(=O)Nc2nccs2)nc2nccnc2c1=O` [Example Compound 89, (S)-2-((4-Oxo-3-(1-phenylethyl)-3,4-dihydropteridin-2-yl)-thio)-N-(thiazol-2-yl) acetamide] is 5.77; for `C[C@@H](c1ccccc1)n1c(SCc2nc3ccccc3[nH]2)nc2nccnc2c1=O` [Example Compound 90, (S)-2-(((1H-Benzo[d]imidazol-2-yl)methyl)thio)-3-(1-phenylethyl)pteridin-4(3H)-one] it is 4.80. On the same count and under the same terms, the figure for `COC(=O)[C@H]1C[C@H](n2c(SCC(=O)Nc3nccs3)nc3nccnc3c2=O)C1` [Example Compound 91, trans-Methyl 3-(4-oxo-2-((2-oxo-2-(thiazol-2-ylamino)ethyl)thio)pteridin-3(4H)-yl)cyclobutane-1-carboxylate] is 6.43. Regarding `COC(=O)[C@H]1C[C@H](n2c(SCc3nc4ccccc4[nH]3)nc3nccnc3c2=O)C1` [Example Compound 92, trans-Methyl-3-(2-(((1H-benzo[d]imidazol-2-yl)methyl)thio)-4-oxo-pteridin-3(4H)-yl)cyclobutane-1-carboxylate], the pIC50 was 6.49.
